Test results taken from patent US9618513B2, “Compositions and methods for detecting and treating colorectal cancer” (The Regents of the University of Michigan, priority 2014, dated 2017).
Entries after “also recorded” stand apart in the source; their conditions may differ.

How the values were obtained:
Format in all cases: cell-based, human
[1] = tested on: H3K79me2 (DOT1L); test: Histone marks by western blot in colon cancer cells
Experimental: (A) IL-22 induces H3K79me2 in colon cancer cells. Colon cancer cells were treated with IL-22 for 48 hours. Total histone modifications were analyzed by western blot. (B, C) DOT1L inhibitor, EPZ004777 suppresses colon cancer sphere formation induced by IL-22. Colon cancer sphere assay was performed in the presence of IL-22 and EPZ004777. Sphere numbers were recorded. DLD-1 cells (B), primary colon cancer cells (C). (n=5, P<0.05). (D, E) IL-22 stimulates DOT1L complex gene expression. Colon cancer cells were cultured for 12 hours with IL-22. DOT1L complex gene expression was quantified by real-time PCR. DLD-1 cells (D), primary colon cancer cells (E). (n=3, P<0.05). (F) DOT1L knock down results in reduced colon cancer sphere formation induced by IL-22. Colon cancer sphere assay was performed with colon cancer cells expressing sh-DOT1L or vector in the presence of IL-22. Sphere numbers were recorded. (n=5, P<0.05). (G-I), IL-22 causes higher occupancy of H3K79me2 on core stem cell gene promoters. H3K79me2-ChIP assay was performed in DLD-1 colon cancer cells cultured with IL-22. One of 3 experiments is shown. […]
DLD1 and primary colon cancer cells (#2) were cultured with different concentrations of EPZ004777. Histone marks were detected by western blot. […]
Colon cancer cells were transfected with control vectors or the shDOT1L vector. Histone marks were detected by Western blot. […]

[2] = tested on: primary colon cancer cell line SBCA; test: Proliferation of primary colon cancer cell line SBCA
Experimental: FIG. 21A-E A. Dot1L/H3K79me2 inhibitor EZP004777 (10 uM) had no effect on SUZ12 expression but reduce Sox2. B. EZP004777 had no effect on primary colon cancer cell line SBCA. C. EZH2 inhibitor DZNep reduced SBCA cell proliferation. D. SUZ12 knockdown reduced H3K27m3 level. E. Effect of I1-22 on tumor sphere assay was analyzed in shEZH2, shSUZ12 and Dznep treated cells.
Three primary colon cancer cell lines (SB, WR, JR) were established from fresh colon tissues. These primary colon cancer cells and DLD1 (ATCC) were studied. Colon cancer cells were treated with recombinant IL-22 (R&D) for different time points. The EZH2 inhibitor DZNep was added in conventional or sphere culture (see, e.g., Kryczek, I., et al., (2012) International journal of cancer 130, 29-39). Tumor cell sphere formation and gene expression were examined (see, e.g., Kryczek, I., et al., (2012) International journal of cancer 130, 29-39).

[3] = tested on: DLD-1 colon cancer cells; test: Colon cancer sphere assay, DLD-1 cells
Text: (A), IL-22 is expressed in colon cancer tissues. IL-22 mRNA was detected by real-time PCR in colon cancer tissues and peripheral blood. *P<0.05 compared to blood, 20 colon cancer patients. (B-D), Endogenous IL-22 promotes colon carcinogenesis. Single cells (10^7) isolated from colon cancer tissue were mixed with anti-IL-22 antibody or control mAb, and then subcutaneously injected to NSG mice. Tumor growth (B), incidence (C), and animal survival (D) are shown. (P<0.05 for all, n=5 per group). (E-G) Recombinant IL-22 promotes colon carcinogenesis. DLD-1 colon cancer cells (10^5) were pre-incubated with IL-22 (20 ng/ml) for 1 hour, and then subcutaneously injected to NSG mice. Tumor growth (E), incidence (F), and animal survival (G) are shown. (P<0.05 for all, n=5 per group). (H, I) IL-22 enhances colon cancer sphere formation. DLD-1 colon cancer cells were pre-incubated for 24 hours with IL-22. […] ALDH activity was determined by FACS based on aldefluor fluorescence. […] Results are expressed as fold changes of ALDH expression. […] The mRNA of stem cell core gene was detected by real-time PCR (K) and proteins were detected by western blotting (L, M). […]
(A) IL-22 induces H3K79me2 in colon cancer cells. […] Total histone modifications were analyzed by western blot. […] Sphere numbers were recorded. […] DOT1L complex gene expression was quantified by real-time PCR. […] Sphere numbers were recorded. […]

Molecule: CC(C)N(CCCNC(=O)Nc1ccc(C(C)(C)C)cc1)C[C@H]1O[C@@H](n2ccc3c(N)ncnc32)[C@H](O)[C@@H]1O [EPZ004777]
- H3K79me2 / H3K79 methylation ([1]; DLD1 and primary colon cancer cells (#2), different concentrations): reduced; also recorded: specifically inhibits
- SBCA cell proliferation [2]: no effect
- sphere formation induced by IL-22 ([3]; DLD-1 cells, in the presence of IL-22, inhibitor 10 uM): suppressed

Molecule: IL-22: recombinant IL-22 (R&D systems), cytokine interleukin-22
- dimethylation of histone 3 lysine 79 (H3K79me2), total ([1]; colon cancer cells, IL-22 48 hours): selectively increased
- tumor sphere formation ([3]; DLD-1 pre-incubated 24 hours with IL-22, 2,000 cells): promoted tumor sphere formation in a dose dependent manner
